Literature values as cited in patent US20090004105A1, “Molecular imaging of matrix metalloproteinase expression using labeled chlorotoxin” (priority 2007, published 2009).

Experiments:
[1] = test system: tumors of neuroectodermal origin; details: immunohistochemical studies, Lyons et al. 2002
[2] = molecular target: T1, MMP-2 presented on the surface of glioma cells (Homo sapiens, UniProt P08253); details: Deshane et al. 2003
T1 sequence (P08253 110-660): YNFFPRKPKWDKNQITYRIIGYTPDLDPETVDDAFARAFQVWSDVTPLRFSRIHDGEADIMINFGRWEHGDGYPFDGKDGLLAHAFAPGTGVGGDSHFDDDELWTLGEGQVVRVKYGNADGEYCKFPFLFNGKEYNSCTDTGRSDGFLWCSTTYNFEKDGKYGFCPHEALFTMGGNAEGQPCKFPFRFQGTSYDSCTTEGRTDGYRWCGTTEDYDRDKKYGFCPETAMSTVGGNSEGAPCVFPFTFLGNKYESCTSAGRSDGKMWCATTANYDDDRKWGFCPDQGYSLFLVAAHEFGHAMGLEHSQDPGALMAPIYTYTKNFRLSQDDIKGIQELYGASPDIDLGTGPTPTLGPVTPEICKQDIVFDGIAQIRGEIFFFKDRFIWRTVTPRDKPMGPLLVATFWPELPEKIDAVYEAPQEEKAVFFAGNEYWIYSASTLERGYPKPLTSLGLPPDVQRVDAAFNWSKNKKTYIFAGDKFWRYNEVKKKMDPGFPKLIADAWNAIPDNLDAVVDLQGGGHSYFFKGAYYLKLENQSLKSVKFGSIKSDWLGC

Substance: Chlorotoxin [Cltx]
- binding to tumors of neuroectodermal origin [1]: specifically and selectively binds
- MMP-2 inhibition [2]: specific MMP-2 inhibitor
- binding affinity to MMP-2 on glioma cell surface [2]: high affinity
